Measurements taken from patent US20090176996A1, “PROCESS FOR THE PREPARATION OF SULFAMIDE DERIVATIVES” (priority 2008, published 2009).

melting point: 102 to 104 °C
Compound: NS(=O)(=O)NCc1ccccc1 (hydrate or solvate) [Example 5, Benzylsulfamide]
